Reference: US20240293365A1, “METHODS FOR TREATING AND AMELIORATING T CELL RELATED DISEASES” (The Regents of the University of California, priority 2021, published 2024)

Target: T1, ZAP70 kinase (Homo sapiens, UniProt P43403)
T1 construct: The FRET change is mediated by the kinase domain; saFRET biosensor module (FRET pair and sensing unit); expressed in transfected cells; host or cells: HEK293
T1 sequence (P43403 338-600 limits assumed): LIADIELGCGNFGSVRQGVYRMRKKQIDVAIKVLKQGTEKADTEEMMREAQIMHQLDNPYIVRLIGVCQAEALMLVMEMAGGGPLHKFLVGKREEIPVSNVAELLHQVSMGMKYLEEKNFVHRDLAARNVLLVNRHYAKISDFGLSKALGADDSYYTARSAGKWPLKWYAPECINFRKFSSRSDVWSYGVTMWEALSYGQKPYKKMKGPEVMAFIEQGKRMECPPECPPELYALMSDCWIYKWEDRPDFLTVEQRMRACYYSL
Assay: saFRET-HTDS: ZAP70 saFRET biosensor screening of a 96-member kinase inhibitor library in HEK293 cells
Assay type: cell-based
Conditions: 96-member kinase inhibitor library, 10 μM, FIG. 2D
Description: We first screened a 96-member kinase inhibitor library to identify efficient inhibitors of ZAP70 kinase. […] After 40 minutes of incubation with inhibitors, the cells were imaged, and the FRET ratio changes of individual inhibitors compared to the solvent control were calculated to identify promising candidates after this primary endpoint screening (FIG. 2). We further exploited a control biosensor with a kinase-dead domain (saFRETkd) for counter screening to eliminate false-positive hits due to auto-fluorescence or other non-specific effects (1).
C, Schematics of saFRET assay in HEK293 cells.
A, Schematics of the high throughput drug screening platform. First, the cells cultured in 96-well glass-bottom plate were treated either with DMSO or inhibitors from the kinase inhibitor library. After 40 minutes of incubation, the cells were imaged, and the FRET ratio change compared to the control cell was calculated.

top 10 selected inhibitors of the saFRET screening | Compound
top 10 | NC1CCCN(c2c(/C=C3/SC(=O)NC3=O)cccc2-c2ccccc2)C1 (stereo not drawn) [AZD 1208]
top 10 | NC(=O)Nc1cc(-c2cccc(F)c2)sc1C(=O)N[C@H]1CCCNC1 [AZD 7762]
top 10 | CCn1c(=O)c(-c2ccc(-c3cncs3)cc2Cl)cc2cnc(Nc3ccc(N4CCN(C)CC4)cc3)nc21 [FRAX 597]
top 10 | CNC(=O)c1ccccc1Nc1nc(Nc2ccc(N3CCOCC3)cc2OC)ncc1Cl [NVP-TAE226]
top 10 | Cc1[nH]c(/C=C2\C(=O)Nc3ccc(S(=O)(=O)Cc4c(Cl)cccc4Cl)cc32)c(C)c1C(=O)N1CCC[C@@H]1CN1CCCC1 [PHA-665752]
top 10 | COc1cc2c(Nc3ccc(NC(=O)c4ccccc4)cc3)ncnc2cc1OCCCN1CCOCC1 [ZM 447439]

Compound | top 10 selected inhibitors of the saFRET screening
COc1ccc2cc(-c3nc(-c4ccc([S+](C)[O-])cc4)[nH]c3-c3ccncc3)ccc2c1 (stereo not drawn) [Tie2 kinase inhibitor] | top 10
CN[C@@H]1C[C@H]2O[C@@](C)([C@@H]1OC)n1c3ccccc3c3c4c(c5c6ccccc6n2c5c31)C(=O)NC4 [staurosporine] | top 10

Same assay, conditions: inhibitor 10 μM, 40 minutes incubation

inhibition of ZAP70 kinase domain-mediated activation of saFRET biosensor (FRET ratio change vs solvent control) | Compound
relatively ineffective | Cn1cc(-c2nc(N[C@@H]3CCCC[C@@H]3N)c(F)c3c2C(=O)NC3)cn1 [TAK-659]
